Read-outs that look alike come from different tables or passages of the source.
Tests used:
[1] = target: T1, BRG-1 (Homo sapiens, UniProt P51532); assay: ATPase catalytic activity of BRG-1, ADP-Glo in vitro biochemical assay; conditions: 30 nM BRG-1, 400 μM ATP, read-out: BRG1 IC50
T1 construct: made in house; host or cells: High Five insect cells
Method in brief: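 In this in vitro format, BRG-1 hydrolysis product ADP is detected via a two-step ADP-Glo workup (ATP removal, then ADP-to-ATP conversion with luciferase detection) followed by a luminescence read.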

[2] = target: T2, BRM (Homo sapiens, UniProt P51531); assay: ATPase catalytic activity of BRM, ADP-Glo in vitro biochemical assay; conditions: for IC50: 30 nM BRM, 400 μM ATP; for Ratio* (BRG1 IC50 (μM) divided by BRM IC50 (μM)): selectivity ratio BRG1 IC50 / BRM IC50
T2 construct: made in house; host or cells: High Five insect cells
T2 sequence (P51531 whole entry): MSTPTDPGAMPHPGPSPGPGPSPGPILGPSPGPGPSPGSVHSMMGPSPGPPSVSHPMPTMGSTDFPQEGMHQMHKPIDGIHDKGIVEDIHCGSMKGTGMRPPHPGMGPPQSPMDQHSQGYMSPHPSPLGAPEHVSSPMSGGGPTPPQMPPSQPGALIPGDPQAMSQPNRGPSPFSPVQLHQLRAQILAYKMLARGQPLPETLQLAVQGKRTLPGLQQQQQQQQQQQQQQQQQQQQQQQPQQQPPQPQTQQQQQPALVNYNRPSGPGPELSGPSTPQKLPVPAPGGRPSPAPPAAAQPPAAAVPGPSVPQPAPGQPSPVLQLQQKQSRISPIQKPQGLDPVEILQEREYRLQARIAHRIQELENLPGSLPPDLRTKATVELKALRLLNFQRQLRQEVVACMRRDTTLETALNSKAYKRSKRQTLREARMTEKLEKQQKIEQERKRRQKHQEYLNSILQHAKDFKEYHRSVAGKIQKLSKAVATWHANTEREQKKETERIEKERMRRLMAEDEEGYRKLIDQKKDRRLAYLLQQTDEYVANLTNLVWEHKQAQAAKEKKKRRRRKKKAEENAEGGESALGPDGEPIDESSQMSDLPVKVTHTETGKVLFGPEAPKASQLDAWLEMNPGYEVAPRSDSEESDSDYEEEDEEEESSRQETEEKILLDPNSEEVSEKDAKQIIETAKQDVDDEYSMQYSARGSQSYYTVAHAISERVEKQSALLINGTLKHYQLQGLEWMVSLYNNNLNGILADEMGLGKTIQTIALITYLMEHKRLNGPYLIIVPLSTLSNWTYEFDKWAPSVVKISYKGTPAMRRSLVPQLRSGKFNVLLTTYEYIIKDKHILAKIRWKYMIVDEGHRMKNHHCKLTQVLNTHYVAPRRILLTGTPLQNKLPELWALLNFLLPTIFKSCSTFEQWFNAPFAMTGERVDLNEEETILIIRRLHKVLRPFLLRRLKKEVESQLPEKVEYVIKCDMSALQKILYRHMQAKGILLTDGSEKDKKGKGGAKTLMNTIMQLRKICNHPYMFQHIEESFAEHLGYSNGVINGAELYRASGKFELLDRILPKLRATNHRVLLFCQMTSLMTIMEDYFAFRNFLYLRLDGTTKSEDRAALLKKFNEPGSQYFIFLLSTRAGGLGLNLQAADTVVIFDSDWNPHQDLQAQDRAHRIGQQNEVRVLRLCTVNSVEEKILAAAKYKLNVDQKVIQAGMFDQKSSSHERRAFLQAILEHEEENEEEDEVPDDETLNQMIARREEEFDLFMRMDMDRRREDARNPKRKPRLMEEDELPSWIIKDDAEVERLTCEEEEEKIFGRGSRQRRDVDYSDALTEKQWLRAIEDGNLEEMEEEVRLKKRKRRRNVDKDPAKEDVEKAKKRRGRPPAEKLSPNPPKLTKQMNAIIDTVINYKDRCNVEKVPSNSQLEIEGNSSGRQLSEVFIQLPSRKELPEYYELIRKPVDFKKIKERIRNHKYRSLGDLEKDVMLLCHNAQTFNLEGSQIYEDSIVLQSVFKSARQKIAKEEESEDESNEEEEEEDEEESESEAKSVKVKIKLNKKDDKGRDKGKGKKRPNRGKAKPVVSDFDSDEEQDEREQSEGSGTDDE
Method in brief: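 ADP-Glo luminescence, after depletion of leftover ATP and conversion of ADP, reported the activity. The 1 h room-temperature reaction held 400 μM ATP, 20 nM salmon sperm DNA and 30 nM BRM in 20 mM Tris pH 8, 20 mM MgCl2, 50 mM NaCl, 0.1% Tween-20, 1 mM DTT.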

[3] = ATPase catalytic activity, ADP-Glo

T1 sequence (P51532 whole entry): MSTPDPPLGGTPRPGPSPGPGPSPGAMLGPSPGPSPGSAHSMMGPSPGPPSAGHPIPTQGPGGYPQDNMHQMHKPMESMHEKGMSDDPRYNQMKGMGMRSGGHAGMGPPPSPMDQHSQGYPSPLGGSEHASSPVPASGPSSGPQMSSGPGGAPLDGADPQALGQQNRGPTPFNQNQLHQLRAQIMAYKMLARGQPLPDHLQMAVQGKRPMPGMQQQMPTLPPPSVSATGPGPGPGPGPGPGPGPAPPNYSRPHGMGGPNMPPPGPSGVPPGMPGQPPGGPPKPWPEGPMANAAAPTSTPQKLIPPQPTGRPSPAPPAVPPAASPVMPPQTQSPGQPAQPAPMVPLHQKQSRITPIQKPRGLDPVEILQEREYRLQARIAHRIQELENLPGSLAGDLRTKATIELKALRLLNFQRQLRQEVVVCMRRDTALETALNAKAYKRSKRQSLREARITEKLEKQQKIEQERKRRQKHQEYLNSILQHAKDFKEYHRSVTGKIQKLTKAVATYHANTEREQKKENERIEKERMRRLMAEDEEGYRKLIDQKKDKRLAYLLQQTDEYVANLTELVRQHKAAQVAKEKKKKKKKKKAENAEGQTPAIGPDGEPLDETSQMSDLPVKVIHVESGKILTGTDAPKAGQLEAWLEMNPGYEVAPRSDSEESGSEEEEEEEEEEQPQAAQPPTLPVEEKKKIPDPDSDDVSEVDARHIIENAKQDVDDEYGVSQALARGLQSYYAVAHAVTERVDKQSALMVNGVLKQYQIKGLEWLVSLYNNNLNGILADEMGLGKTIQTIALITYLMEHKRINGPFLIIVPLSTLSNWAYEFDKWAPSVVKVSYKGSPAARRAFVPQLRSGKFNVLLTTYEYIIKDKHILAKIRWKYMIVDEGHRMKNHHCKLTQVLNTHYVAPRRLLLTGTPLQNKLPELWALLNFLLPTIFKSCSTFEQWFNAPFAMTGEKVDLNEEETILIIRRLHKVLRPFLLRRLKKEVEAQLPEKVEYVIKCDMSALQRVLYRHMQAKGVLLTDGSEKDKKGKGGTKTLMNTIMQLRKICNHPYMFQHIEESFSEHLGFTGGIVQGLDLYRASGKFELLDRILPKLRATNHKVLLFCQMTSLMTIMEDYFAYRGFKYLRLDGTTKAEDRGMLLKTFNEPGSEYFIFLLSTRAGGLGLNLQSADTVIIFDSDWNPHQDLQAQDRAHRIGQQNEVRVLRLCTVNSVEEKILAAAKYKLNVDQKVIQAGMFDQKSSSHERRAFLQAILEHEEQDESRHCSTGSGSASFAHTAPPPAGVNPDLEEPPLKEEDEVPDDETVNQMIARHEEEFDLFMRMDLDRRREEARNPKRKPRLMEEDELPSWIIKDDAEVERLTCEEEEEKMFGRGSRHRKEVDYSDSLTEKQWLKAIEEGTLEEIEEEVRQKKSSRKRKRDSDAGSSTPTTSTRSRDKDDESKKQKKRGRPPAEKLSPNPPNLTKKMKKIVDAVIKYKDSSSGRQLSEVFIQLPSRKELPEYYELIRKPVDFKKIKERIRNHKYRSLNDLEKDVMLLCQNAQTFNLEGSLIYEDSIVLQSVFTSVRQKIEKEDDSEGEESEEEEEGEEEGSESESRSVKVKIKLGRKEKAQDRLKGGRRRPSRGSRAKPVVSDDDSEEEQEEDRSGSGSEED

Row | IC50 [1, 3] [nM] | IC50 [2, 3] [nM] | Ratio* ([2]; ratio of BRG1 IC50 to BRM IC50) | IC50 ([1]; ADP-Glo ATPase assay) [nM] | IC50 ([2]; ADP-Glo ATPase assay) [nM] | Ratio* ([2]; ratio BRG1 IC50 / BRM IC50) | Ratio* (BRG1 IC50 (μM) divided by BRM IC50 (μM)) [2] | SMILES
1 | 1560 | 102 | 15.25 | – | – | – | – | C[C@H]1COCc2ccc(C(=O)NCc3cc4nc(-c5ccnc([C@@H]6CC6(F)F)n5)ccc4cn3)cc2S1(=O)=O [Compound 465]
2 | 185 | 25.1 | 7.37 | – | – | – | – | O=C(NCc1cc2nc(-c3cccc(N4CCOCC(F)(F)C4)n3)ccc2cn1)c1ccc2c(c1)S(=O)(=O)CCOC2 [Compound 341]
3 | 80.4 | 9.4 | 8.53 | – | – | – | – | C[C@@]1(F)CCCN(c2cccc(-c3ccc4cnc(CNC(=O)c5ccc6c(c5)S(=O)(=O)CCOC6)cc4n3)n2)C1 [Compound 318]
4 | – | – | – | 172 | 10.5 | 16.35 | – | COc1cc(C2CC2)nc2c1CCCN2c1ccc2cnc(CNC(=O)c3ccc4c(c3)S(=O)(=O)CCOC4)cc2n1 [Compound 771]
5 | 958 | 44 | 21.77 | – | – | – | – | C[C@H]1COCc2ncc(C(=O)NCc3cc4nc(-c5cccc(C6CC6)n5)ccc4cn3)cc2S1(=O)=O [Compound 452]
6 | 231 | 19 | 12.21 | – | – | – | – | CC1Cc2ccc(C(=O)NCc3cc4nc(-c5cccc(N6C[C@@H](C)O[C@@H](C)C6)n5)ccc4cn3)cc2S1(=O)=O (stereo partly drawn) [Compound 364]
7 | – | – | – | 93.4 | 6.6 | 14.12 | – | [2H]C1([2H])OC([2H])([2H])[C@H](C)S(=O)(=O)c2cc(C(=O)NCc3cc4nc(N5CCOc6cc(C)cnc65)ccc4cn3)ccc21 [Compound 741]
8 | – | – | – | 2350 | 277 | – | 8.50 | O=C(NCc1cc2nc(-c3cncc(C4CC4)n3)ccc2cn1)c1ccc2c(c1)S(=O)(=O)CCCO2 [Compound 302]
9 | 162 | 11.7 | 13.88 | – | – | – | – | O=C(NCc1cc2nc(-c3cccc([C@@]45CCOCC4C5)n3)ccc2cn1)c1ccc2c(c1)S(=O)(=O)CCOC2 (stereo partly drawn) [Compound 378]
10 | 224 | 16.6 | 13.49 | – | – | – | – | CO[C@H]1CN(c2cccc(-c3ccc4cnc(CNC(=O)c5ccc6c(c5)S(=O)(=O)CCOC6)cc4n3)n2)C[C@H]1F [Compound 332]
11 | 37.9 | 4.9 | 7.66 | – | – | – | – | COC[C@H](C)Oc1ccc2c(c1)N(c1ccc3cnc(CNC(=O)c4ccc5c(c4)S(=O)(=O)CCOC5)cc3n1)CCC2 [Compound 697]
12 | 135 | 9.9 | 13.59 | – | – | – | – | CCOc1nc(-c2ccc3cnc(CNC(=O)c4ccc5c(c4)S(=O)(=O)CCOC5)cc3n2)ccc1C [Compound 501]
13 | – | – | – | 272 | 20.8 | 13.06 | – | COCc1cc(F)c2c(c1)OCCN2c1ccc2cnc(CNC(=O)c3ccc4c(c3)S(=O)(=O)CCOC4)cc2n1 [Compound 796]
14 | 702 | 44.6 | 15.74 | – | – | – | – | CO[C@@H](C)c1cnc2c(c1)CCCN2c1ccc2cnc(CNC(=O)c3ccc4c(c3)S(=O)(=O)CCOC4)cc2n1 [Compound 607]
15 | – | – | – | 291 | 20.2 | 14.40 | – | O=C(NCc1cc2nc(N3CCOc4cc(N5CCC5)ncc43)ccc2cn1)c1ccc2c(c1)S(=O)(=O)CCOC2 [Compound 834]
16 | 478 | 20.4 | 23.51 | – | – | – | – | COCCn1ncc2c1CCCN2c1ccc2cnc(CNC(=O)c3ccc4c(c3)S(=O)(=O)CCOC4)cc2n1 [Compound 400]
17 | 653 | 76.5 | 8.53 | – | – | – | – | COC[C@H]1C[C@H]1N(C)c1cccc(-c2ccc3cnc(CNC(=O)c4ccc5c(c4)S(=O)(=O)CCOC5)cc3n2)n1 [Compound 412]
18 | – | – | – | 27.9 | 4.5 | 6.27 | – | O=C(NCc1cc2nc(N3CCCc4ccc(OCC5(F)COC5)cc43)ccc2cn1)c1ccc2c(c1)S(=O)(=O)CCOC2 [Compound 745]
19 | – | – | – | 284 | 23.5 | 12.08 | – | O=C(NCc1cc2nc(N3CCOc4cc(C5CC5)cc(F)c43)ccc2cn1)c1ccc2c(c1)S(=O)(=O)CCOC2 [Compound 765]
20 | 1110 | 39.2 | 28.40 | – | – | – | – | C[C@@H]1CN(c2cccc(-c3ccc4cnc(CNC(=O)c5ccc6c(c5)S(=O)(=O)[C@@H](C)COC6)cc4n3)c2F)C[C@H](C)O1 [Compound 609]
21 | – | – | – | 264 | 54.6 | 4.84 | – | C[C@@H]1CN(c2ccnc(-c3ccc4cnc(CNC(=O)c5ccc6c(c5)S(=O)(=O)CCOC6)cc4c3)n2)C[C@H](C)O1 [Compound 707]
22 | – | – | – | 1680 | 62.4 | 26.90 | – | [2H]C1([2H])Oc2ccc(C(=O)NCc3cc4nc(N5CCOc6ccc(C(F)F)nc65)ccc4cn3)cc2S(=O)(=O)C([2H])([2H])C1([2H])[2H] [Compound 818]
23 | 283 | 22 | 12.86 | – | – | – | – | COC[C@@H]1C[C@H]1N(C)c1cccc(-c2ccc3cnc(CNC(=O)c4ccc5c(c4)S(=O)(=O)CCOC5)cc3n2)n1 [Compound 311]
24 | – | – | – | 15.8 | 5.4 | – | 2.91 | O=C(NCc1cc2nc(-c3cccc(N4CCCC(F)(F)C4)n3)ccc2cn1)c1ccc2c(c1)S(=O)(=O)CCOC2 [Compound 308]
25 | 138 | 12.9 | 10.75 | – | – | – | – | COCCN(CC(C)(F)F)c1cccc(-c2ccc3cnc(CNC(=O)c4ccc5c(c4)S(=O)(=O)CCOC5)cc3n2)n1 [Compound 373]

More lines, now with the values behind:

Row | SMILES | IC50 [1, 3] [nM] | IC50 [2, 3] [nM] | Ratio* ([2]; ratio of BRG1 IC50 to BRM IC50) | IC50 ([1]; ADP-Glo ATPase assay) [nM] | IC50 ([2]; ADP-Glo ATPase assay) [nM] | Ratio* ([2]; ratio BRG1 IC50 / BRM IC50) | Ratio* (BRG1 IC50 (μM) divided by BRM IC50 (μM)) [2]
26 | COCCN(C)c1cccc(-c2ccc3cnc(CNC(=O)c4ccc5c(c4)S(=O)(=O)CCOC5)cc3n2)n1 [Compound 145] | – | – | – | 57.1 | 3.6 | – | 15.77
27 | O=C(NCc1cc2nc(-c3cccc(C4(CF)CC4)n3)ccc2cn1)c1ccc2c(c1)S(=O)(=O)CCOC2 [Compound 120] | – | – | – | 469 | 44.7 | – | 10.48
28 | Cc1c(Cl)cc(C(=O)NCc2cc3nc(-c4cncc(C5CC5)n4)ccc3cn2)cc1S(C)(=O)=O [Compound 269] | – | – | – | 5000 | 200 | – | 25.03
29 | C[C@@H]1CN(c2cccc(-c3ccc4cnc(CNC(=O)c5cccc(S(C)(=O)=O)c5Cl)cc4n3)n2)C[C@H](C)O1 [Compound 82] | – | – | – | 5000 | 427 | – | 11.71
30 | CCN(CC)c1cccc(-c2ccc3cnc(CNC(=O)c4ccc5c(c4)S(=O)(=O)CCOC5)cc3n2)n1 [Compound 83] | – | – | – | 135 | 8.1 | – | 16.64
31 | Cc1ccc(C(=O)NCc2cc3nc(-c4cncc(C5CC5)n4)ccc3cn2)cc1S(=O)(=O)C(C)C [Compound 279] | – | – | – | 5000 | 529 | – | 9.45
32 | CS(=O)(=O)c1cc(C(=O)NCc2cc3nc(-c4cncc(C5CC5)n4)ccc3cn2)ccc1CC(F)F [Compound 164] | – | – | – | 1410 | 110 | – | 12.80
33 | CO[C@H]1C[C@@H](c2cccc(-c3ccc4cnc(CNC(=O)c5ccc6c(c5)S(=O)(=O)CCOC6)cc4n3)n2)C1 [Compound 113] | – | – | – | 583 | 59.5 | – | 9.79
34 | COC[C@@H](C)Nc1cccc(-c2ccc3cnc(CNC(=O)c4ccc(C(F)F)c(S(C)(=O)=O)c4)cc3n2)n1 [Compound 60] | – | – | – | 5000 | 789 | – | 6.34
35 | CS(=O)(=O)c1cc(C(=O)NCc2cc3nc(-c4cccc(N5CC[C@H]6OCC[C@@H]6C5)n4)ccc3cn2)ccc1Cl [Compound 98] | – | – | – | 257 | 33 | – | 7.80
36 | CC1COCc2ccc(C(=O)NCc3cc4nc(-c5cccc(N6CCC6)n5)ccc4cn3)cc2S1(=O)=O (single isomer, unassigned) [Compound 199] | – | – | – | 2410 | 252 | – | 9.56
37 | C[C@@H]1CN(c2cccc(-c3cnc4cnc(CNC(=O)c5ccc(C(F)F)c(S(C)(=O)=O)c5)cc4n3)n2)C[C@H](C)O1 [Compound 56] | – | – | – | 240 | 13.6 | – | 17.62
38 | C[C@@H]1CN(c2cccc(-c3ccc4nnc(CNC(=O)c5ccc6c(c5)S(=O)(=O)CCOC6)cc4c3)n2)C[C@H](C)O1 [Compound 160] | – | – | – | 13.6 | 3 | – | 4.54
39 | COCc1c(Cl)cc(C(=O)NCc2cc3nc(-c4cccc(N5C[C@@H](C)O[C@@H](C)C5)n4)ccc3cn2)cc1S(C)(=O)=O [Compound 114] | – | – | – | 1610 | 70.8 | – | 22.76
40 | C[C@@H]1COC[C@H](C)N1c1cccc(-c2ccc3cnc(CNC(=O)c4ccc5c(c4)S(=O)(=O)CCOC5)cc3n2)n1 [Compound 104] | – | – | – | 903 | 203 | – | 4.45
41 | COCc1ccc(C(=O)NCc2cc3nc(-c4cccc(N5C[C@@H](C)O[C@@H](C)C5)n4)ccc3cn2)cc1S(C)(=O)=O [Compound 192] | – | – | – | 32.7 | 5.1 | – | 6.45
42 | CO[C@H]1C[C@H](N(C)c2cccc(-c3ccc4cnc(CNC(=O)c5ccc6c(c5)S(=O)(=O)CCOC6)cc4n3)n2)C1 [Compound 42] | – | – | – | 127 | 17.3 | – | 7.37

Reference: patent publication US20230416248A1, “COMPOUNDS AND USES THEREOF” (Foghorn Therapeutics Inc., priority 2020, published 2023)
